In data set [1] the test system is K. pneumoniae A9977. The experiment in a line: Oral PD50 in mice. The format is in vivo. The settings on record: Klebsiella pneumoniae, read-out: PD50. On the procedure: (§1) Comparative Oral PD50 Values of
(§2) BL-S640 Derivatives in Mice
(§3) *Mice were treated at 1 and 3.5 hours post-challenge.

The test system of data set [2] is S. pyogenes A9604. The experiment in a line: Oral PD50 in mice. Format: in vivo. The settings on record: Streptococcus pyogenes, mice treated at 1 and 3.5 hours post-challenge. The method, then: as §1, §2, §3
In data set [3] the test system is E. coli A15119. The experiment in a line: Oral PD50 in mice. Format: in vivo. The settings on record: for ED50: Escherichia coli, A15119, po, 3.5 h, read-out: PD50. The method, then:
as §1, §2, §3

Data set [4] deals with P. mirabilis A9707. Nature of the data set: Oral PD50 in mice. The format is in vivo. The settings on record: Proteus mirabilis, mice treated at 1 and 3.5 hours post-challenge. The method, then: as §1, §2, §3
The nature of data set [5]: Mouse blood levels after intramuscular administration. Format: in vivo. The settings on record: for concentration at 0.25 h / concentration at 0.5 h / concentration at 1 h / concentration at 1.5 h: mouse, blood, im, 10 mg/kg. The method, then: Mouse Blood Levels After Intramuscular Administration
of 10 mg./kg. Body Weight
The compounds were dissolved in 0.01% phosphate buffer.
Mouse Blood Levels After IM
Administration of 10 mg./kg. Body Weight
The compounds were prepared in 0.01% phosphate
The compounds were prepared in 0.01% phosphate buffer.

Data set [6] has as its system bacterial spectrum. Nature of the data set: Antibacterial activity / MIC bacterial spectrum compared with parent. Format: cell-based. The settings on record: in words. The text has this:
|Antibiotic Activity In Nutrient Broth

The nature of data set [7]: Stability of aqueous solutions. Format: physicochemical.
Data set [8] in a line: Detection in urine (with mouse blood levels). The settings on record: no evidence of the derivative. Format: in vivo.
A short description of data set [9]: IR-NMR: cyclic / non cyclic derivative in solution. Format: physicochemical. The settings on record: 70 mg/ml.
Data set [10] can be described thus: Stability of solids. Format: physicochemical. The settings on record: solid; 1 month at 56° C.; read-out: Stability of Solids (loss).
Data set [11] in a line: Rat blood levels. The settings on record: in words. The format is in vivo.
The nature of data set [12]: Water solubility. The format is physicochemical. The settings on record: for solubility: read-out: Solubility in water.
The nature of data set [13]: physchem.
Description: Paper strip bioautographs were run in the following manner. Samples were dissolved at a concentration of 500 γ/ml. in 0.1M pH 7 phosphate buffer and pH 7 pooled human serum at 500 γ/ml. A 10 μl sample of BL-S640 and the above product were spotted on a 1/2 inch strip of What. No. 1 paper and developed at 27° for 16 hours in a butyl acetate 80, n-butanol 15, acetic acid 40, and water 24 system. The strips were air-dried, and placed on an agar plate seeded with B. subtilis A.T.C.C.
Samples were chromatographed on a μ Bondapak C18 (Waters Associates) column using a 0.01M sodium acetate pH 4/-methanol 8/2 mobile phase at a flow rate of 0.52 ml./min. Detection was by UV at 354 μm. Samples were dissolved at a concentration of 1 mg./ml. in the mobile phase, 2 μ were injected and BL-S640 was eluted at 18 min. and the aldehyde at 6 min. The quantitation of BL-S640 and 5-formylfuransulfonic acid were made using p-toluene-sulfonic acid as an internal standard.
The mark [14] stands for this setting: A9977, oral, mice treated at 1 and 3.5 hours post-challenge.
The mark [15] stands for this setting: oral, mice treated at 1 and 3.5 hours post-challenge.
Setting [16] is: Example 3, IM 10 mg./kg., average of 3 experiments, read-out: Blood Levels.
[17] abbreviates: Example 3, IM 10 mg./kg., 1 hr, average of 3 experiments, read-out: Blood Levels.
Setting [18] is: Table III, IM 10 mg./kg., 0.01% phosphate buffer, read-out: Mouse Blood Levels.
The mark [19] stands for this setting: Example 2, IM 10 mg./kg., 0.01% phosphate buffer, 16 or 32 mice, read-out: Blood Levels.
[20] abbreviates: Example 2, IM 10 mg./kg., 1 hr, 0.01% phosphate buffer, 16 or 32 mice, read-out: Blood Levels.

Read-outs that look alike come from different tables or passages of the source. A value given as a limit tells only on which side of the number the result lay.

The source of these data is patent US4026888A, “Certain derivatives of particular 3-thiolated cephalosporins” (priority 1976, dated 1977).

With `N[C@@H](C(=O)N[C@@H]1C(=O)N2C(C(=O)O)=C(CSc3cnn[nH]3)CS[C@H]12)c1ccc(O)cc1` [BL-S640, 7-[D-α-amino-α-(p-hydroxyphenyl)acetamido]-3-(1,2,3-triazol-5-ylthiomethyl)-3-cephem-4-carboxylic acid, reference compound], the ED50 in data set [1] (setting [14]) came to 1.6 mg/kg; in data set [2], 0.4 mg/kg; in data set [3] (setting [15]), 4.1 mg/kg; in data set [3], 1.4 mg/kg; in data set [4], 2.4 mg/kg. The “Blood Levels” value in data set [5] (Example 2, IM 10 mg./kg., 1 hr, 0.01% phosphate buffer, 16 or 32 mice) stood at 9500 ng/mL. Besides, the concentration at 0.25 h in [5] (setting [16]) was 12700 ng/mL; in [5] (setting [18]), 16300 ng/mL. Besides, the concentration at 0.5 h in data set [5] (setting [16]) worked out at 11500 ng/mL. For the same compound, the concentration at 1 h in data set [5] (setting [17]) came to 8000 ng/mL. Besides, the concentration at 1.5 h in data set [5] (setting [16]) came out at 5700 ng/mL; in data set [5] (setting [18]), 6300 ng/mL.
Broadly, the solubility is how much of the substance goes into solution per volume. As to `O=C(O)C1=C(CSc2cnn[nH]2)CS[C@@H]2[C@H](N3C(=O)[C@@H](c4ccc(O)cc4)NC3c3ccc(S(=O)(=O)O)o3)C(=O)N12` (stereo partly shown) [BL-S1027], in data set [6], the “MIC bacterial spectrum / activity compared with parent” value was “equal to that of BL-S640”. This compound also showed an ED50 in [4] of 1.8 mg/kg. For the same compound, in [5] (intramuscular, in words), the “Mouse blood levels, intramuscular, compared with BL-S640 propylene glycol adduct” value was “approximately equal”. Also, in data set [5] (setting [19]), the concentration at 0.25 h was found to be 15400 ng/mL, the concentration at 0.5 h worked out at 15100 ng/mL and the concentration at 1.5 h came out at 8200 ng/mL. Also, the concentration at 1 h in data set [5] (setting [20]) is 11800 ng/mL. In data set [5] (setting [18]), the concentration at 0.25 h turned out to be 16100 ng/mL, the concentration at 0.5 h is 14800 ng/mL and the concentration at 1.5 h was found to be 8000 ng/mL. Also, the concentration at 1 h in data set [5] (Table III, IM 10 mg./kg., 1 hr, 0.01% phosphate buffer, read-out: Mouse Blood Levels) came to 11900 ng/mL. The “Storage of aqueous solutions, loss in activity” value in data set [7] (250, 25 and 10 mg. BL-S640 activity/ml., 4° C. or room temperature, at least 24 hours) is recorded as “no significant loss in activity”. Further, in [7] (25,000 mcg./ml., 6° C. (refrigerator)), the “Stability of solution in water: stable (retained full bioactivity)” value is on record as 14 days. The “Stability of solution in water” value in data set [7] (25,000 mcg./ml., room temperature, for at least three days) is reported as “stable (retained full bioactivity) for at least three days”. Besides, the degraded at 24 h in [7] (water, 250, 25 and 10 mg./ml. of BL-S640 activity, at least 24 hours at room temperature, read-out: Stability of solutions (loss)) was < 10%. Further, in data set [8], the “Form appearing in urine” value is listed as “BL-S640 appeared in urine with no evidence”. Further, the “non cyclic derivative in solution” value in data set [9] was 20%. Moreover, in [10], the degraded was < 10%. Also, the “Intramuscular rat blood levels compared with BL-S640” value in data set [11] (intramuscular) is “equal to that of BL-S640”. The “Oral rat blood levels compared with BL-S640” value in data set [11] (oral) was “equal to that of BL-S640”. Moreover, in data set [12], the Solubility in water was > 400 mg/mL and the solubility is > 500 mg/mL.
Regarding `O=C(O)COc1ccccc1C1N[C@H](c2ccc(O)cc2)C(=O)N1[C@@H]1C(=O)N2C(C(=O)O)=C(CSc3cnn[nH]3)CS[C@H]12` (stereo partly shown) [BL-S1048], the ED50 in data set [1] (A9977, po, 3.5 h) turned out to be 0.7 mg/kg; in [2], 0.2 mg/kg; in data set [3] (setting [15]), 3.1 mg/kg; in [3], 1.6 mg/kg; in [4], 2.4 mg/kg. Also, the concentration at 0.25 h in data set [5] (setting [19]) is 14800 ng/mL. For the same compound, in data set [5] (setting [19]), the concentration at 0.5 h stood at 14100 ng/mL. The concentration at 1 h in [5] (setting [20]) came to 10300 ng/mL. Besides, the concentration at 1.5 h in data set [5] (setting [19]) amounted to 7000 ng/mL.
For the compound `O=C(O)C1=C(CSc2cnn[nH]2)CS[C@@H]2[C@H](N3C(=O)[C@@H](c4ccc(O)cc4)NC3c3ccccc3S(=O)(=O)O)C(=O)N12` (stereo partly shown) [BL-S1055], in data set [1] (setting [14]), the ED50 is 1.6 mg/kg. In [2], this compound gave an ED50 of 0.4 mg/kg. Besides, in [3] (setting [15]), the ED50 is 1.8 mg/kg and the PD50 worked out at 1.6 mg./kg./treatment. The same compound registered an ED50 in [4] of 1 mg/kg. Besides, in data set [5] (setting [16]), the concentration at 0.25 h turned out to be 10300 ng/mL, the concentration at 0.5 h came to 9900 ng/mL and the concentration at 1.5 h stood at 6500 ng/mL. Further, the concentration at 1 h in data set [5] (setting [17]) was 7600 ng/mL. Further, in [13], the degraded at 1 h was determined as 70.5% and the degraded at 2 h is 88%. Besides, in data set [12], the solubility was > 400 mg/mL.
